Source: patent US10433548B2, “Biocidal compositions comprising iron chelators” (Arch Chemicals, Inc., priority 2012, dated 2019)
Values after ≈ are worked out from the molar mass of the structure shown. Where two headings read alike, the source gives them in different places.

Experiments:
M. furfur = test: Minimum Inhibitory Concentration (MIC) test, 96-well microtiter plate; assay type: cell-based; set-up: unit not given here
Experimental: (§1) Activities of antimicrobial compositions of the present invention were tested against a range of typical skin microorganisms in a Minimum Inhibitory Concentration (MIC) test. MICs for the organisms were determined in a standard 96-well microtiter plate assay in Brain Heart Infusion Broth (BHI) for P. acnes; Tryptic Soy Broth (TSB) for the remaining bacteria; Ushijima Broth for M. furfur; Sabouraud Dextrose Broth (SDB) for other fungi. Samples were tested in duplicate on separate plates. For bacteria and fungi plates, samples were serially diluted into double strength media on the microtiter plates. The bacterial or fungal inocula, suspended in sterile deionized water, were then added to the wells in 1:1 ratio to the medium. The final concentration of bacteria in the wells was 5×10^5 CFUs/mL, the final concentration of fungi was 5×10^4 cells or spores/mL. Plates were incubated: anaerobically at 35° C. for 7 days for P. acnes; aerobically at 35° C. for 2 days for the remaining bacteria and aerobically at 35° C. for 7 days for M. furfur; aerobically at 28° C. for 7 days for T. mentagrophytes.

A. brasiliensis = test: as above; assay type: cell-based; set-up: unit not given here
Experimental: as §1

A. pullulans = test: as above; assay type: cell-based; set-up: unit not given here; conditions: concentration of BIT; BIT alone or with potentiator, Molar Eq (Pot:BIT) 10:1
Experimental: as §1

P. faveolarum = test: as above; assay type: cell-based; set-up: unit not given here
Experimental: as §1

P. aeruginosa [1] = test: as above; assay type: cell-based; set-up: unit not given here
Experimental: as §1

B. subtilis = test: as above; assay type: cell-based; set-up: unit not given here
Experimental: as §1

T. mentagrophytes = test: as above; assay type: cell-based; set-up: unit not given here
Experimental: as §1

S. epidermidis = test: as above; assay type: cell-based; set-up: unit not given here
Experimental: as §1

C. pyrenoidosa = test: as above; assay type: cell-based; set-up: unit not given here
[2] = tested on: S. aureus, P. aeruginosa, and E. coli; conditions: in combination with ZPT
Experimental: (§2) Time-kill test were performed to assess microbial reduction by antimicrobial agents, with and without chelators, against S. aureus, P. aeruginosa, and E. coli.
(§3) 100 μL of sample and 100 μL of bacterial suspension at 5×10^5 cells/mL was loaded into the first well of each row in a 96-well plate, mixed and after specific contact time, 10-fold serial dilutions were made using a multichannel pipette by transferring 20 μL into 180 μL of Letheen broth, mixing 10 times. The process was repeated. Thereafter, three replicates of 10 μL from each of the six selected dilutions were plated onto Tryptic Soy Agar using a 2-20 μL monochannel pipette. Plates were allowed to dry, then placed into an incubator at 35° C. for 24 hrs. Colonies (0.5-1 mm) were enumerated using a colony counter.

S. aureus = test: Time-kill test (microbial reduction); assay type: cell-based; conditions: for log reduction: from initial microbial population
Experimental: as §2, §3

P. aeruginosa [3] = test: Time-kill test (microbial reduction); assay type: cell-based; conditions: for log reduction: from initial microbial population
Experimental: as §2, §3

E. coli [4] = test: Time-kill test (microbial reduction); assay type: cell-based; conditions: E. coil; for log reduction: from initial microbial population
Experimental: as §2, §3

P. acnes = test: Minimum Inhibitory Concentration (MIC) test, 96-well microtiter plate; assay type: cell-based; conditions: for MIC: Cutibacterium acnes
Experimental: as §1

E. coli [5] = test: as above; assay type: cell-based; conditions: Active ZPT alone or plus chelator or chelator + Zn(II); Molar Ratio HBED 10×, 8-HQ 5×, 8-HQ + Zn(II) 1×, 2-HPNO 10×
Experimental: as §1

R. subcapitata = test: as above; assay type: cell-based; set-up: unit not given here
C. albicans = test: as above; assay type: cell-based; set-up: unit not given here; conditions: concentration of ZPT; ZPT alone or with potentiator, Molar Eq (Pot:ZPT) 10:1, 8-HQ-Zn 1:1
Experimental: as §1

[6] = Active ZPT alone or plus chelator or chelator + Zn(II), Molar Ratio HBED 10×, 8-HQ 5×, 8-HQ + Zn(II) 1×, 2-HPNO 10×
[7] = concentration of BIT, BIT alone or with potentiator, Molar Eq (Pot:BIT) 10:1
[8] = concentration of ZPT, ZPT alone or with potentiator, Molar Eq (Pot:ZPT) 10:1, 8-HQ-Zn 1:1

Compound	MIC M. furfur (M. furfur; [6])	MIC P. aeruginosa (P. aeruginosa [1]; [6])	MIC T. mentagrophytes (T. mentagrophytes; [6])	MIC S. epidermidis (S. epidermidis; [6])	CFU (S. aureus; 4 hr contact)	log reduction (S. aureus; 4 hr contact) [log]	CFU (S. aureus; 8 hr contact)	log reduction (S. aureus; 8 hr contact) [log]	CFU (P. aeruginosa [3]; 4 hr contact)	log reduction (P. aeruginosa [3]; 4 hr contact) [log]	CFU (P. aeruginosa [3]; 8 hr contact)	log reduction (P. aeruginosa [3]; 8 hr contact) [log]	CFU (E. coli [4]; 4 hr contact)	log reduction (E. coli [4]; 4 hr contact) [log]	CFU (E. coli [4]; 8 hr contact)	log reduction (E. coli [4]; 8 hr contact) [log]	MIC E. Coli (E. coli [5])	also measured
O=C(O)CN(CCN(CC(=O)O)Cc1ccccc1O)Cc1ccccc1O [HBED, N,N-bis(2-hydroxybenzyl)ethylenediamine-N,N-diacetic acid]	3.91	62.5	0.49	0.98	1.4 × 10^6 CFUs/mL	1	2.3 × 10^5 CFUs/mL	2	>10^7 CFUs/mL	0	1.6 × 10^5 CFUs/mL	3	8.3 × 10^5 CFUs/mL	2	1.6 × 10^6 CFUs/mL	2	15.63	MIC A. brasiliensis (A. brasiliensis; [7]): 32.50; MIC A. pullulans (A. pullulans): 4.06; MIC P. faveolarum (P. faveolarum; [7]): 4.06; MIC P. aeruginosa (P. aeruginosa [1]; [7]): 8.13; MIC B. subtilis (B. subtilis; [7]): 0.51; MIC C. pyrenoidsa (C. pyrenoidosa; [7]): 2.03; ranking of chelators in time-kill studies [2]: best chelator; MIC values against P. acnes, Benzoyl Peroxide (P. acnes; Benzoyl Peroxide without chelator or with chelator, Molar Eq. HBED 10×, 8-HQ 5×, DTPA 10×, Desferrioxamine 1×): 3.13 ppm; MIC values against P. acnes, Salicylic Acid (P. acnes; Salicylic Acid without chelator or with chelator, Molar Eq. HBED 10×, 8-HQ 5×, DTPA 10×, Desferrioxamine 1×): 3.13 ppm; MIC R. subcapitata (R. subcapitata; [7]): 4.06
zinc pyrithione [ZPT]	1.25-1.95	31.25-62.5	3.91-5	1.95-7.8		1		2	7.3 × 10^6 CFUs/mL	1	6.3 × 10^6 CFUs/mL	2	>10^7 CFUs/mL	0	>10^7 CFUs/mL	0	1.95-7.81	MIC M. furfur (M. furfur; [8]): 0.98-4; MIC A. brasiliensis (A. brasiliensis; [8]): 7.81-15.6; MIC C. albicans (C. albicans): 7.81; MIC P. faveolarum (P. faveolarum; [8]): 0.05-2; MIC P. aeruginosa (P. aeruginosa [1]; [8]): 31-62; MIC B. subtilis (B. subtilis; [8]): 1.95-4; MIC T. mentagrophytes (T. mentagrophytes; [8]): 3.91-8; MIC S. epidermidis (S. epidermidis; [8]): 1.95-7.8; MIC C. pyrenoidsa (C. pyrenoidosa; [8]): 0.24-4; MIC R. subcapitata (R. subcapitata; [8]): 1.95-4
Oc1cccc2cccnc12 [8-HQ, 8-hydroxyquinoline]	1.95	125	7.81	0.49	1.6 × 10^5 CFUs/mL	1	6.3 × 10^5 CFUs/mL	2	2.6 × 10^6 CFUs/mL	1	3 × 10^5 CFUs/mL	3	8.6 × 10^5 CFUs/mL	2	1.2 × 10^6 CFUs/mL	2	7.81	MIC (P. acnes; read-out: MIC values against P. acnes, Benzoyl Peroxide): 0.78 µg/mL (≈ 5.37 µM); MIC (P. acnes; read-out: MIC values against P. acnes, Salicylic Acid): 0.78 µg/mL (≈ 5.37 µM)
